Experimental data published in patent US8410153B2, “Naphthalene isoxazoline invertebrate pest control agents” (E.I. du Pont de Nemours and Company, priority 2007, dated 2013).

Columns and labels:
Format in all cases: in vivo
[1] = tested on: diamondback moth (Plutella xylostella); test: Test A: control of diamondback moth on radish plant, foliar spray; conditions: sprayed at 50 ppm, held 6 days
Method in brief: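 Radish plants 12–14 days old, pre-infested with about 50 neonate larvae, sprayed at 50 ppm in 10% acetone/water with 300 ppm X-77 surfactant; three replicates. After 6 days at 25° C and 70% RH, feeding damage was scored visually and mortality counted.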

[2] = tested on: western flower thrips (Frankliniella occidentalis); test: Test E: control of western flower thrips on Soleil bean plant, contact and/or systemic; conditions: held 6 days
Method in brief: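 5–7-day-old Soleil bean plants were sprayed at 250 or 50 ppm in 10% acetone/90% water with 300 ppm X-77 surfactant, three replicates. After drying 1 h, 22–27 adult thrips were added per unit. Mortality and plant damage were rated after 6 days at 25 °C and 45–55% RH.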

[3] = tested on: fall armyworm (Spodoptera frugiperda); test: Test B: control of fall armyworm on corn (maize) plant, foliar spray; conditions: sprayed at 50 ppm
Method in brief: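 4-5-day-old corn plants pre-infested with 10-15 1-day-old larvae on insect diet, then sprayed with compound at 50 ppm in 10% acetone/90% water with 300 ppm surfactant, three replicates. Held 6 days at 25° C, 70% RH; feeding damage assessed visually and mortality rated.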

Measured: levels of control efficacy (20% or less feeding damage or 80% or more mortality)

CSCCC(C)NC(=O)c1ccc(C2=NOC(c3cc(Cl)cc(Cl)c3)(C(F)(F)F)C2)c2ccccc12 (stereo not shown) [Compound 26]
very good to excellent: [1] | [2]; sprayed at 50 ppm | [2]; sprayed at 250 ppm | [3]

CSCC(C)(C)NC(=O)c1ccc(C2=NOC(c3cc(Cl)cc(Cl)c3)(C(F)(F)F)C2)c2ccccc12 (stereo not shown) [Compound 27]
very good to excellent: [1] | [2]; sprayed at 50 ppm | [2]; sprayed at 250 ppm | [3]

COCCNC(=O)c1ccc(C2=NOC(c3cc(Cl)cc(Cl)c3)(C(F)(F)F)C2)c2ccccc12 (stereo not shown) [Compound 28]
very good to excellent: [1] | [2]; sprayed at 50 ppm | [2]; sprayed at 250 ppm | [3]

CSCC(C)NC(=O)c1ccc(C2=NOC(c3cc(Cl)cc(Cl)c3)(C(F)(F)F)C2)c2ccccc12 (stereo not shown) [Compound 30]
very good to excellent: [1] | [2]; sprayed at 250 ppm | [3]

O=C(CNC(=O)c1ccc(C2=NOC(c3cc(Cl)cc(C(F)(F)F)c3)(C(F)(F)F)C2)c2ccccc12)NCC(F)(F)F (stereo not shown) [Compound 62]
very good to excellent: [1] | [2]; sprayed at 50 ppm | [2]; sprayed at 250 ppm | [3]

CC(C)NC(=O)CNC(=O)c1ccc(C2=NOC(c3cc(Cl)cc(C(F)(F)F)c3)(C(F)(F)F)C2)c2ccccc12 (stereo not shown) [Compound 63]
very good to excellent: [1] | [2]; sprayed at 50 ppm | [2]; sprayed at 250 ppm | [3]

CSCCNC(=O)c1ccc(C2=NOC(c3cc(Cl)cc(C(F)(F)F)c3)(C(F)(F)F)C2)c2ccccc12 (stereo not shown) [Compound 65]
very good to excellent: [1] | [2]; sprayed at 50 ppm | [2]; sprayed at 250 ppm | [3]

CS(=O)(=O)CCNC(=O)c1ccc(C2=NOC(c3cc(Cl)cc(C(F)(F)F)c3)(C(F)(F)F)C2)c2ccccc12 (stereo not shown) [Compound 66]
very good to excellent: [1] | [2]; sprayed at 50 ppm | [2]; sprayed at 250 ppm | [3]

CC(O)CNC(=O)c1ccc(C2=NOC(c3cc(C(F)(F)F)cc(C(F)(F)F)c3)(C(F)(F)F)C2)c2ccccc12 (stereo not shown) [Compound 67]
very good to excellent: [1] | [2]; sprayed at 50 ppm | [2]; sprayed at 250 ppm | [3]

C[S+]([O-])CCNC(=O)c1ccc(C2=NOC(c3cc(C(F)(F)F)cc(C(F)(F)F)c3)(C(F)(F)F)C2)c2ccccc12 (stereo not shown) [Compound 79]
very good to excellent: [1] | [2]; sprayed at 50 ppm | [2]; sprayed at 250 ppm | [3]

CC(NC(=O)c1ccc(C2=NOC(c3cc(C(F)(F)F)cc(C(F)(F)F)c3)(C(F)(F)F)C2)c2ccccc12)C(=O)NCC(F)(F)F (stereo not shown) [Compound 85]
very good to excellent: [1] | [2]; sprayed at 50 ppm | [2]; sprayed at 250 ppm | [3]

CNC(=O)C(C)NC(=O)c1ccc(C2=NOC(c3cc(C(F)(F)F)cc(C(F)(F)F)c3)(C(F)(F)F)C2)c2ccccc12 (stereo not shown) [Compound 86]
very good to excellent: [1] | [2]; sprayed at 50 ppm | [2]; sprayed at 250 ppm | [3]

CC(C)NC(=O)C(C)NC(=O)c1ccc(C2=NOC(c3cc(C(F)(F)F)cc(C(F)(F)F)c3)(C(F)(F)F)C2)c2ccccc12 (stereo not shown) [Compound 87]
very good to excellent: [1] | [2]; sprayed at 250 ppm | [3]

CCNC(=O)C(C)NC(=O)c1ccc(C2=NOC(c3cc(C(F)(F)F)cc(C(F)(F)F)c3)(C(F)(F)F)C2)c2ccccc12 (stereo not shown) [Compound 88]
very good to excellent: [1] | [2]; sprayed at 50 ppm | [2]; sprayed at 250 ppm | [3]

CC(C)CNC(=O)C(C)NC(=O)c1ccc(C2=NOC(c3cc(C(F)(F)F)cc(C(F)(F)F)c3)(C(F)(F)F)C2)c2ccccc12 (stereo not shown) [Compound 90]
very good to excellent: [1] | [2]; sprayed at 50 ppm | [3]

CCSCCNC(=O)c1ccc(C2=NOC(c3cc(C(F)(F)F)cc(C(F)(F)F)c3)(C(F)(F)F)C2)c2ccccc12 (stereo not shown) [Compound 92]
very good to excellent: [1] | [2]; sprayed at 50 ppm | [2]; sprayed at 250 ppm | [3]

CC[S+]([O-])CCNC(=O)c1ccc(C2=NOC(c3cc(C(F)(F)F)cc(C(F)(F)F)c3)(C(F)(F)F)C2)c2ccccc12 (stereo not shown) [Compound 98]
very good to excellent: [1] | [2]; sprayed at 50 ppm | [3]

CCS(=O)(=O)CCNC(=O)c1ccc(C2=NOC(c3cc(C(F)(F)F)cc(C(F)(F)F)c3)(C(F)(F)F)C2)c2ccccc12 (stereo not shown) [Compound 99]
very good to excellent: [1] | [2]; sprayed at 50 ppm | [3]

CCNC(=O)CNC(=O)c1ccc(C2=NOC(c3cc(C(F)(F)F)cc(C(F)(F)F)c3)(C(F)(F)F)C2)c2ccccc12 (stereo not shown) [Compound 100]
very good to excellent: [1] | [2]; sprayed at 50 ppm | [3]

CCCNC(=O)CNC(=O)c1ccc(C2=NOC(c3cc(C(F)(F)F)cc(C(F)(F)F)c3)(C(F)(F)F)C2)c2ccccc12 (stereo not shown) [Compound 101]
very good to excellent: [1] | [2]; sprayed at 50 ppm | [3]

CC(C)CNC(=O)CNC(=O)c1ccc(C2=NOC(c3cc(C(F)(F)F)cc(C(F)(F)F)c3)(C(F)(F)F)C2)c2ccccc12 (stereo not shown) [Compound 102]
very good to excellent: [1] | [2]; sprayed at 50 ppm | [3]

CC(C)(C)CNC(=O)CNC(=O)c1ccc(C2=NOC(c3cc(C(F)(F)F)cc(C(F)(F)F)c3)(C(F)(F)F)C2)c2ccccc12 (stereo not shown) [Compound 103]
very good to excellent: [1] | [2]; sprayed at 50 ppm | [3]

CNC(=O)CNC(=O)c1ccc(C2=NOC(c3cc(C(F)(F)F)cc(C(F)(F)F)c3)(C(F)(F)F)C2)c2ccccc12 (stereo not shown) [Compound 105]
very good to excellent: [1] | [2]; sprayed at 50 ppm | [3]
